What is called Km is the concentration of substrate that gives half-maximal velocity.

The structures appear in SMILES notation.

The target of test [1] is T1, human prostate (type 2) 5α-reductase (Homo sapiens, UniProt P31213).
T1 sequence (P31213 1-254): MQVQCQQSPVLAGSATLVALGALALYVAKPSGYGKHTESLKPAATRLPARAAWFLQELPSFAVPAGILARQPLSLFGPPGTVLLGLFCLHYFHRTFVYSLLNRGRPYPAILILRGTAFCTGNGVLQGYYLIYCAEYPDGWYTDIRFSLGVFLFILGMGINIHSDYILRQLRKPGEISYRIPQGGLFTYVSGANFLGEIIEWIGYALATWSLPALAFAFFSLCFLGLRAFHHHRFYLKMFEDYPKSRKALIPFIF
The following applies: read-out: Km for testosterone; native human prostate enzyme, neutral pH; Faller et al.; cited from earlier work.

Test [2] addresses T1, human prostate (type 2) 5α-reductase. Kind of test: Steady-state enzyme kinetics of substrates. The following applies: pH 7.2, 37° C. The arrangement: native prostate enzyme considered interchangeable. It is filed as biochemical. An excerpt: The model applies in many aspects to both slow-binding, reversible inhibitors and to mechanism-based, irreversible ones.
When tissue extracts were the source of enzyme, the quenched reactions were clarified by centrifugation at 10,000×g before analysis.

Take `C[C@]12CC[C@H]3[C@@H](CCC4=CC(=O)CC[C@@]43C)[C@@H]1CC[C@@H]2O` [testosterone]: in test [1], the Michaelis-Menten constant (Km) is 0.02 ± 0.003 µM. For the same compound, in test [2], the kcat/Km is recorded as 2.99±0.32×10^6 M^-1 s^-1. In test [2] (by titration with finasteride), the turnover number kcat amounted to 0.075 ± 0.006 s⁻¹.

Source of the values: patent US5656613A, “Treatment of hyperandrogenic conditions” (Merck & Co., Inc., priority 1995, dated 1997).
